In brackets after ≈: the same amount, converted by molar mass. Like-named read-outs stand apart in the source and are kept apart here. Marks after values point to notes of the source that are not given here.
Assays:
[1] = test system: E. faecium 4; assay type: cell-based; details: sensitive strain; broth dilution micromethod, CLSI; modal values (or range) of 3–5 independent tests
Excerpt: (§1) The antimicrobial activity of semisynthetic derivatives of eremomycin 4a–q was studied in comparison with vancomycin on a wide panel of Gram-positive bacteria sensitive (Staphylococcus aureus ATCC 29213, S. aureus R-2, S. haemoliticus 602, S. pneumoniae ATCC 6305, Enteroccus faecium 4, and E. faecalis 559) and resistant to vancomycin (S. aureus 3797, S.aureus 3798, E. faecium 2, E. faecium 3576, E. faecalis 9, E. faecalis 583, and E. gallinarum BΠ 4147), information about the strains given in Table S3. The minimum microbial inhibitory concentration (MIC) for the test compounds was determined by the broth dilution micromethod according to CLSI guidelines, and vancomycin and a standard strain S. aureus ATCC 29213 used as controls (Figure 2 and Tables S4 and S5).
(§2) Table S4. Antibacterial activity of vancomycin and derivatives 4a–q against sensitive Gram-positive bacteria.
(§3) Strain/MIC (Minimum inhibitory concentration, μg/ml)*
(§4) Compound m n R S.aureus АТСС S.aureus R-2 S.haemoliticus S.pneumoniae АТСС E. faecium 4 E. faecalis 559
(§5) *MICs are presented as modal values for 3–5 independently replicated MIC tests for each strain and for the antibiotics. In the range of the
(§6) obtained MIC values, the obtained modal values are highlighted in bold.

[2] = test system: S. haemoliticus 602; assay type: cell-based; details: sensitive strain; broth dilution micromethod, CLSI; modal values (or range) of 3–5 independent tests
Excerpt: as §1, §2, §3, §4, §5, §6

[3] = test system: E. faecalis 559; assay type: cell-based; details: sensitive strain; broth dilution micromethod, CLSI; modal values (or range) of 3–5 independent tests
Excerpt: as §1, §2, §3, §4, §5, §6

[4] = test system: S. aureus R-2; assay type: cell-based; details: sensitive strain; broth dilution micromethod, CLSI; modal values (or range) of 3–5 independent tests
Excerpt: as §1, §2, §3, §4, §5, §6

[5] = test system: Staphylococcus aureus ATCC 29213; assay type: cell-based; details: vancomycin-sensitive control strain; broth dilution micromethod, CLSI; modal values (or range) of 3–5 independent tests
Excerpt: as §1, §2, §3, §4, §5, §6

[6] = Acute toxicity, single IV injection in mice; assay type: in vivo, F1 (CBAxC57Bl) mice; details: for therapeutic index (TI = LD50/ED50): laboratory animals (mice), IV, LD50 acute toxicity / ED50 staphylococcal sepsis
Procedure: The F1 (CBAxC57Bl) mice (18–20 g) were randomized into groups (n = 6) and received eremomycin N-(2-((2-fluorobenzyl)amino)ethyl)amide 4e through single intravenous injections. The intact animals were used as the control. The substance was dissolved in a 5% glucose solution and was administrated in dosage ranges of 130–200 mg/kg into the tail veins of the mice. The concentration of 4e in the injected solution was 5 mg/mL.
The acute toxicity was estimated by the mortality and survival time, as well as by the body weight gain/loss, food consumption, and clinical symptoms of intoxication, including behavioral reactions. […] The LD50 values and the maximum tolerated doses (MTD = LD10) were calculated using the method of Litchfield and Wilcoxon using the StatPlus Professional 3.8.0 software.

[7] = test system: S. pneumoniae ATCC 6305; test: MIC, broth dilution micromethod (CLSI); assay type: cell-based; details: sensitive strain, modal values (or range) of 3–5 independent tests
Excerpt: as §1, §2, §3, §4, §5, §6

[8] = test system: E. faecium 3576; assay type: cell-based; details: strain resistant to vancomycin; broth dilution micromethod, CLSI; modal values (or range) of 3–5 independent tests
Excerpt: as §1
(§7) Table S5. Antibacterial activity of vancomycin and derivatives 4a–q against resistant Gram-positive bacteria.
(§8) Strain/MIC (minimum inhibitory concentration; μg/ml)
(§9) Compound m n R S.aureus 3797 S.aureus 3798 E. faecium 2 E. faecium 3576 E. faecalis 9 E. faecalis 583 E. gallinarum
(§10) *MICs are presented as modal values for 3–5 independently replicate MIC tests for each strain and for the antibiotics. In the range of the obtained MIC
(§11) values, the obtained modal values are highlighted in bold.

[9] = test system: S. aureus 3797; assay type: cell-based; details: strain resistant to vancomycin; broth dilution micromethod, CLSI; modal values (or range) of 3–5 independent tests
Excerpt: as §1, §7, §8, §9, §10, §11

[10] = test system: E. faecalis 9; assay type: cell-based; details: strain resistant to vancomycin; broth dilution micromethod, CLSI; modal values (or range) of 3–5 independent tests
Excerpt: as §1, §7, §8, §9, §10, §11

[11] = test system: S.aureus 3798; assay type: cell-based; details: strain resistant to vancomycin; broth dilution micromethod, CLSI; modal values (or range) of 3–5 independent tests
Excerpt: as §1, §7, §8, §9, §10, §11

[12] = test system: E. gallinarum BΠ 4147; assay type: cell-based; details: strain resistant to vancomycin; broth dilution micromethod, CLSI; modal values (or range) of 3–5 independent tests
Excerpt: as §1, §7, §8, §9, §10, §11

[13] = test system: E. faecium 2; assay type: cell-based; details: strain resistant to vancomycin; broth dilution micromethod, CLSI; modal values (or range) of 3–5 independent tests
Excerpt: as §1, §7, §8, §9, §10, §11

[14] = test system: E. faecalis 583; assay type: cell-based; details: strain resistant to vancomycin; broth dilution micromethod, CLSI; modal values (or range) of 3–5 independent tests
Excerpt: as §1, §7, §8, §9, §10, §11

[15] = test system: S. aureus (strain 10, clinical isolate); test: Mouse staphylococcal sepsis model, single IV administration; assay type: in vivo, mice (SHK colony); details: for Survival: 30 min after infection, n = 10; for ED50: mice infected IV with lethal dose of S. aureus (8 × 10^8 CFU/mouse), single IV dose 30 min after infection, n = 10 per group, observed 14 days, Behrens method
Procedure: A comparative study of the efficacy of eremomycin N-(2-((2-fluorobenzyl)amino)ethyl)amide (4e) and vancomycin was carried out in a mice staphylococcal sepsis model. Healthy female mice of the SHK colony weighing 20–22 g after two-week quarantine were randomized into groups (n = 10) and received S. aureus as the infectious agent (strain 10, clinical isolate, adapted for growth in vivo by five-fold passaging in mice). In the experiment, female mice of the SHK colony weighing 20–22 g were used. S. aureus (strain 10, clinical isolate), adapted for growth in vivo by five-fold passaging in mice, was used as the infectious agent. Initially, the lethal dose (LD100) of staphylococcus was determined for this mouse line using the intravenous infection route. The mice deaths were counted daily for 10 days. Thus, the lethal dose (LD100) was defined as 8 × 10^8 CFU/mouse. Afterwards, the mice were seated in cages of 10 heads and were infected intravenously with S. aureus at a lethal dose, and the efficacy of the tested drugs was determined by the ED50 value (i.e., the dose at which 50% of the experimental animals survive). Then, 30 min after infection, the mice were injected intravenously with eremomycin N-(2-((2-fluorobenzyl)amino)ethyl)amide (4e) at single doses from 0.1 to 2.5 mg/kg. or vancomycin at doses from 2.5 to 7.5 mg/kg. As a control dose, a group of untreated animals infected with a lethal dose of S. aureus was present in the experiment. The determination of ED50 of the tested compounds was carried out in one experiment under a single control using the Behrens method.

[16] = mice, IV administration; previous investigation; cited from earlier work
Procedure: For the characterization of the therapeutic potential of the lead compound 4e, an acute toxicity test for an IV single-dose administration was also carried out (Table 2). […] The drug administration in doses of 130–190 mg/kg led to the death of some animals from 2 to 15 min after injections as a result of cardiac and respiratory arrest against the background of neurotoxicity. […] The quantitative parameters of acute toxicity (LD50 and MTD (LD10) values ...

[17] = mouse staphylococcal sepsis model, single IV

Molecule | MIC E. faecium 4 [1] [mg/L] | MIC S.haemoliticus 602 [2] [mg/L] | MIC E. faecalis 559 [3] [mg/L] | MIC S.aureus R-2 [4] [mg/L] | MIC S.aureus ATCC 29213 [5] [mg/L] | therapeutic index (TI = LD50/ED50) [6] | MIC S.pneumoniae ATCC 6305 [7] [mg/L] | MIC E. faecium 3576 [8] [mg/L] | MIC S.aureus 3797 [9] [mg/L] | MIC E. faecalis 9 [10] [mg/L] | MIC S.aureus 3798 [11] [mg/L] | MIC E. gallinarum ВП 4147 [12] [mg/L] | MIC E. faecium 2 [13] [mg/L] | MIC E. faecalis 583 [14] [mg/L] | Survival ([15]; dose 2.5 mg/kg, single IV) [%] | ED50 [15] [mg/kg] | also measured
Eremomycin N-(2-((2-fluorobenzyl)amino)ethyl)amide [4e] | 0.25 | 0.125 | 0.125 | 0.03 to 0.06 | 0.125 | 318 | 0.01 | 0.5 to 1 | 0.5 | 0.03 to 0.06 | 1 | 0.5 | 0.5 | 0.25 to 0.5 | 100 | 0.55 | outcome after the highest dose ([6]; 200 mg/kg, single IV, mice): died immediately; delayed death of animals ([6]; 130–200 mg/kg, single IV, mice, observed 30 days): No delayed death; LD50 ([6]; mice, single IV injection in 5% glucose, 5 mg/mL, n = 6 per group, Litchfield and Wilcoxon, mean (deviation for p ≤ 0.05)): 175.5 (161.7 ÷ 189.8) * mg/kg; MTD (LD10) ([6]; mice, single IV injection, n = 6 per group, Litchfield and Wilcoxon): 144.7 mg/kg; Survival ([15]; dose 0.25 mg/kg, single IV): 30%; Survival ([15]; dose 0.5 mg/kg, single IV): 50%; Survival ([15]; dose 1 mg/kg, single IV): 60%; Survival ([15]; dose 1.5 mg/kg, single IV): 80%; ED50 ratio: times more active than eremomycin [15, 17]: 3.3 times; ED50 ratio: times more effective than vancomycin [15, 17]: 7.5 times
CN[C@H](CC(C)C)C(=O)N[C@H]1C(=O)N[C@@H](CC(N)=O)C(=O)N[C@H]2C(=O)N[C@H]3C(=O)N[C@H](C(=O)N[C@H](C(=O)O)c4cc(O)cc(O)c4-c4cc3ccc4O)[C@H](O)c3ccc(c(Cl)c3)Oc3cc2cc(c3O[C@@H]2O[C@H](CO)[C@@H](O)[C@H](O)[C@H]2O[C@H]2C[C@](C)(N)[C@H](O)[C@H](C)O2)Oc2ccc(cc2Cl)[C@H]1O [Vancomycin, vancomycin, reference compound] | 4 (≈ 2.76 µM) | 2 (≈ 1.38 µM) | 2 (≈ 1.38 µM) | 1 (≈ 0.69 µM) | 0.25 to 0.5 | 128 |  | > 32 | 8 (≈ 5.52 µM) | 8 (≈ 5.52 µM) | 8 (≈ 5.52 µM) | 8 (≈ 5.52 µM) | 8 (≈ 5.52 µM) | 32 (≈ 22.1 µM) | 20 | 4.1 | LD50 [16]: 525 mg/kg; Survival ([15]; dose 3.5 mg/kg, single IV): 40%; Survival ([15]; dose 4.5 mg/kg, single IV): 50%; Survival ([15]; dose 5.5 mg/kg, single IV): 80%; Survival ([15]; dose 6.5 mg/kg, single IV): 90%; Survival ([15]; dose 7.5 mg/kg, single IV): 100%
Eremomycin N-(2-((4-methylbenzyl)amino)ethyl)amide [4c] | 0.25 | 0.25 | 0.25 | 0.25 | 0.25 |  | 0.01 | 1 | 0.5 | 0.03 | 1 | 0.5 | 1 | 1 to 2 |  |  | 

Source: publication PMC8072890, “Aminoalkylamides of Eremomycin Exhibit an Improved Antibacterial Activity” (Pharmaceuticals, 2021)
